Several values for one entry are separate records, joined by “and”; a condition that tells them apart may be missing. Identical values can stand only once. Inconclusive results and toxic doses are left out.
System: P388 leukemia ip, CD2F1 mice, survival T/C
Test: NCI In Vivo Anticancer Drug Screen. Data for tumor model P388 Leukemia (intraperitoneal) in CD2F1 (CDF1) mice
Conditions: endpoint: median survival time, higher = longer survival
Procedure, shortened: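 Mice carrying the transplanted tumor received test compound or vehicle. Survival was recorded in each group, and the value is the treated-group measurement divided by that of the vehicle-treated control group.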

[1] = dose: 60.0 mg/kg/injection, schedule: Q01DX005 (ip), vehicle: saline with Tween-80
[2] = dose: 120.0 mg/kg/injection, schedule: Q01DX005 (ip), vehicle: saline with Tween-80
[3] = dose: 240.0 mg/kg/injection, schedule: Q01DX005 (ip), vehicle: saline with Tween-80
[4] = dose: 50.0 mg/kg/injection, schedule: Q01DX005 (ip), vehicle: Klucel (hydroxypropylcellulose) (HPC)
[5] = dose: 100.0 mg/kg/injection, schedule: Q01DX005 (ip), vehicle: Klucel (hydroxypropylcellulose) (HPC)
[6] = dose: 50.0 mg/kg/injection, schedule: Q01DX009 (ip), vehicle: saline with Tween-80
[7] = dose: 100.0 mg/kg/injection, schedule: Q04DX003 (ip), vehicle: saline with Tween-80
[8] = dose: 200.0 mg/kg/injection, schedule: Q04DX003 (ip), vehicle: saline with Tween-80
[9] = dose: 400.0 mg/kg/injection, schedule: Q04DX003 (ip), vehicle: saline with Tween-80
[10] = dose: 25.0 mg/kg/injection, schedule: Q01DX009 (ip), vehicle: saline with Tween-80
[11] = dose: 50.0 mg/kg/injection, schedule: Q01DX009 (ip), vehicle: saline
[12] = dose: 100.0 mg/kg/injection, schedule: Q04DX002 (ip), vehicle: saline with Tween-80
[13] = dose: 12.5 mg/kg/injection, schedule: Q01DX009 (ip), vehicle: saline
[14] = dose: 25.0 mg/kg/injection, schedule: Q01DX009 (ip), vehicle: saline
[15] = dose: 100.0 mg/kg/injection, schedule: Q01DX009 (ip), vehicle: saline
[16] = dose: 100.0 mg/kg/injection, schedule: Q01DX009 (ip), vehicle: saline with Tween-80

In the case of FC(F)(F)C1(C(F)(F)F)[O][Sb]([c]2ccc(Cl)cc2)([c]2ccc(Cl)cc2)([c]2ccc(Cl)cc2)[O]1, the T/C (dose: 50.0 mg/kg/injection, schedule: Q01DX009 (ip), vehicle: Klucel (hydroxypropylcellulose) (HPC)) was 103 % of control and the T/C (dose: 100.0 mg/kg/injection, schedule: Q01DX009 (ip), vehicle: Klucel (hydroxypropylcellulose) (HPC)) was 88 % of control.
With O=C1CSC(c2cccc(O)c2O)N1c1nncs1 (stereo not drawn) the T/C [1] was 111 % of control, the T/C [2] was 96 % of control and the T/C [3] was 96 % of control.
For CCCCCCCCc1c(C)nc(N)[nH]c1=O, the T/C [1] was 109 % of control, the T/C [2] was 94 % of control and the T/C [3] was 88 % of control.
In the case of COn1nnc2ccc([N+](=O)[O-])cc21, the T/C (dose: 50.0 mg/kg/injection, schedule: Q01DX001 (ip), vehicle: saline with Tween-80) was 99 % of control, the T/C (dose: 100.0 mg/kg/injection, schedule: Q01DX001 (ip), vehicle: saline with Tween-80) was 101 % of control and the T/C (dose: 200.0 mg/kg/injection, schedule: Q01DX001 (ip), vehicle: saline with Tween-80) was 92 % of control.
With CC(C)CC1CCCC12NC(=O)NC2=O (stereo not drawn) the T/C [4] was 97 % of control, the T/C [5] was 89 % of control and the T/C (dose: 200.0 mg/kg/injection, schedule: Q01DX005 (ip), vehicle: Klucel (hydroxypropylcellulose) (HPC)) was 93 % of control.
For CC(=O)Nc1ccc(S(=O)(=O)/C(=C/c2ccc(-c3ccc(Br)cc3)o2)c2ccc([N+](=O)[O-])o2)cc1, the T/C (dose: 50.0 mg/kg/injection, schedule: Q01DX009 (ip), vehicle: suspension in saline) was 86 % of control and the T/C (dose: 100.0 mg/kg/injection, schedule: Q01DX009 (ip), vehicle: suspension in saline) was 104 % of control.
CCCC(NC(N)=O)C(CCC)NC(N)=O (stereo not drawn) was tested, and the T/C [6] was 102 % of control.
In the case of COc1cccc2c(NCCCNCCCNc3c4ccccc4nc4c(OC)cccc34)c3ccccc3nc12, the T/C (dose: 5.0 mg/kg/injection, schedule: Q01DX009 (ip), vehicle: other) was 153 % of control and the T/C (dose: 10.0 mg/kg/injection, schedule: Q01DX009 (ip), vehicle: other) was 157 % of control.
With Cc1ccccc1NC(CCl)=NC(C)(C)C the T/C [7] was 98 % of control, the T/C [8] was 107 % of control and the T/C [9] was 104 % of control.
For Oc1ccc(Nc2ccc3[nH]c4ccccc4c3c2)cc1, the T/C (dose: 25.0 mg/kg/injection, schedule: Q01DX005 (ip), vehicle: Klucel (hydroxypropylcellulose) (HPC)) was 101 % of control, the T/C [4] was 106 % of control and the T/C [5] was 104 % of control.
CCCCCCCCCCCCCCCC[N+](C)(CCO)Cc1ccccc1 (stereo not drawn) was tested, and the T/C (dose: 6.25 mg/kg/injection, schedule: Q04DX002 (ip), vehicle: saline with Tween-80) was 112 % of control and the T/C (dose: 12.5 mg/kg/injection, schedule: Q04DX002 (ip), vehicle: saline with Tween-80) was 116 % of control.
In the case of CC1(C)N=C(N)N=C(N)N1c1ccc(CCC(=O)Nc2ccc(S(=O)(=O)F)cc2)cc1, the T/C (dose: 4.4 mg/kg/injection, schedule: Q01DX009 (ip), vehicle: saline with Tween-80) was 155 % of control, the T/C (dose: 6.6 mg/kg/injection, schedule: Q01DX009 (ip), vehicle: saline with Tween-80) was 150 % of control and the T/C (dose: 10.0 mg/kg/injection, schedule: Q01DX009 (ip), vehicle: saline with Tween-80) was 160 % of control. For the same compound, the T/C (dose: 12.5 mg/kg/injection, schedule: Q01DX009 (ip), vehicle: saline with Tween-80) was 169 % of control, the T/C [10] was 180 % of control and the T/C (dose: 44.0 mg/kg/injection, schedule: Q01DX009 (ip), vehicle: saline with Tween-80) was 168 % of control. For the same compound, the T/C [6] was 177 % of control, the T/C [11] was 93 % of control and the T/C (dose: 66.0 mg/kg/injection, schedule: Q01DX009 (ip), vehicle: saline with Tween-80) was 177 % of control.
C=C(C1OC2OC(C)(C)OC2C1OC)P(=O)(OC(C)C)OC(C)C (stereo not drawn) was tested, and the T/C [12] was 98 % of control and the T/C (dose: 200.0 mg/kg/injection, schedule: Q04DX002 (ip), vehicle: saline with Tween-80) was 98 % of control.
With CN(C)CCNC1=C(Cl)C(=O)c2ccccc2C1=O the T/C (dose: 3.13 mg/kg/injection, schedule: Q01DX009 (ip), vehicle: saline) was 95 % of control, the T/C (dose: 6.25 mg/kg/injection, schedule: Q01DX009 (ip), vehicle: saline) was 94 % of control and the T/C [13] was 97 % of control.
With O=C(O)C1C2C=CC(C1C(=O)O)N(/C=C/c1ccccc1)C2=O (stereo not drawn) the T/C (dose: 100.0 mg/kg/injection, schedule: Q04DX003 (ip), vehicle: Klucel (hydroxypropylcellulose) (HPC)) was 102 % of control, the T/C (dose: 200.0 mg/kg/injection, schedule: Q04DX003 (ip), vehicle: Klucel (hydroxypropylcellulose) (HPC)) was 91 % of control and the T/C (dose: 400.0 mg/kg/injection, schedule: Q04DX003 (ip), vehicle: Klucel (hydroxypropylcellulose) (HPC)) was 90 % of control.
In the case of CCCCCC[N+]1(CC)CCCC1, the T/C (dose: 0.78 mg/kg/injection, schedule: Q01DX009 (ip), vehicle: saline) was 97 % of control, the T/C (dose: 1.56 mg/kg/injection, schedule: Q01DX009 (ip), vehicle: saline) was 113 % of control and the T/C (dose: 3.12 mg/kg/injection, schedule: Q01DX009 (ip), vehicle: saline) was 98 % of control and 100 % of control.
COc1cc2c(cc1OC)[C@@]1(C[C@H]1CO)OCC2 was tested, and the T/C (dose: 100.0 mg/kg/injection, schedule: Q04DX002 (ip), vehicle: Klucel (hydroxypropylcellulose) (HPC)) was 100 % of control, the T/C (dose: 200.0 mg/kg/injection, schedule: Q04DX002 (ip), vehicle: Klucel (hydroxypropylcellulose) (HPC)) was 98 % of control and the T/C (dose: 400.0 mg/kg/injection, schedule: Q04DX002 (ip), vehicle: Klucel (hydroxypropylcellulose) (HPC)) was 95 % of control.
In the case of O=C1OS(=O)(=O)c2cc3c(cc21)C1C(C2C3C3(Cl)C(Cl)=C(Cl)C2(Cl)C3(Cl)Cl)C2(Cl)C(Cl)=C(Cl)C1(Cl)C2(Cl)Cl (stereo not drawn), the T/C [13] was 97 % of control, the T/C [14] was 100 % of control and the T/C [11] was 100 % of control and 104 % of control. The T/C [15] was 107 % of control.
For O=C(O)CSC(CC(=O)O)C(=O)O (stereo not drawn), the T/C [14] was 97 % of control, the T/C [11] was 96 % of control and the T/C [15] was 100 % of control. The T/C (dose: 200.0 mg/kg/injection, schedule: Q01DX009 (ip), vehicle: saline) was 88 % of control.
For Cc1ccccc1C1OC2=C(Nc3ccc(Cl)cc3N2)C1=O (stereo not drawn), the T/C (dose: 60.0 mg/kg/injection, schedule: Q01DX005 (ip), vehicle: Klucel (hydroxypropylcellulose) (HPC)) was 101 % of control, the T/C (dose: 120.0 mg/kg/injection, schedule: Q01DX005 (ip), vehicle: Klucel (hydroxypropylcellulose) (HPC)) was 91 % of control and the T/C (dose: 240.0 mg/kg/injection, schedule: Q01DX005 (ip), vehicle: Klucel (hydroxypropylcellulose) (HPC)) was 101 % of control.
With CC(=O)Oc1cc2c(C)c3ccccc3cc2c2ccccc12 the T/C (dose: 75.0 mg/kg/injection, schedule: Q01DX001 (ip), vehicle: Klucel (hydroxypropylcellulose) (HPC)) was 102 % of control, the T/C (dose: 150.0 mg/kg/injection, schedule: Q01DX001 (ip), vehicle: Klucel (hydroxypropylcellulose) (HPC)) was 102 % of control and the T/C (dose: 300.0 mg/kg/injection, schedule: Q01DX001 (ip), vehicle: Klucel (hydroxypropylcellulose) (HPC)) was 100 % of control.
In the case of CC1(C)OC2OC(C3COS(=O)O3)C(Cl)C2O1 (stereo not drawn), the T/C [1] was 107 % of control, the T/C [2] was 113 % of control and the T/C [3] was 114 % of control.
For N#CC1CCCCCc2c1[nH]c1ccccc21 (stereo not drawn), the T/C [10] was 97 % of control, the T/C [6] was 103 % of control and the T/C [16] was 103 % of control.
Clc1ccc(Cl)nn1 was tested, and the T/C [6] was 97 % of control, the T/C [16] was 100 % of control and the T/C (dose: 200.0 mg/kg/injection, schedule: Q01DX009 (ip), vehicle: saline with Tween-80) was 100 % of control.
ClCCCCOCBr was tested, and the T/C (dose: 60.0 mg/kg/injection, schedule: Q01DX005 (ip), vehicle: saline) was 93 % of control and the T/C (dose: 240.0 mg/kg/injection, schedule: Q01DX005 (ip), vehicle: saline) was 87 % of control.
COc1c(C(C)C)ccc2c1CCC1=C3COC(=O)C3CCC12C (stereo not drawn) was tested, and the T/C (dose: 6.25 mg/kg/injection, schedule: Q01DX009 (ip), vehicle: DMSO) was 109 % of control, the T/C (dose: 12.5 mg/kg/injection, schedule: Q01DX009 (ip), vehicle: DMSO) was 99 % of control and the T/C (dose: 25.0 mg/kg/injection, schedule: Q01DX009 (ip), vehicle: DMSO) was 97 % of control.
With Cc1cc(NC(=O)Nc2cccc(C3=NCCN3)c2)ccc1NC(=O)Nc1cccc(C2=NCCN2)c1 the T/C [7] was 108 % of control, the T/C [8] was 108 % of control and the T/C [9] was 120 % of control.
With O=C1CN(/N=C/c2ccc(-c3cccc(C(F)(F)F)c3)o2)C(=O)N1 the T/C (dose: 50.0 mg/kg/injection, schedule: Q04DX002 (ip), vehicle: saline with Tween-80) was 101 % of control and the T/C [12] was 109 % of control.
